Data published in patent US20250031679A1, “SCREENING METHOD OF PROBIOTIC AND ACTIVE SUBSTANCE FOR PROMOTING RE[…] AND USE” (Xuzhou Medical University, priority 2023, published 2025).

Test system: wild-type N2 C. elegans
Description: The synchronized L1-stage nematodes were diluted to 20 to 30 nematodes/10 μL. The L1-stage C. elegans was collected in the S broth and cultured in a 96-well plate (365 μL/well). 165 μL of medium, 20 μL of different concentrations of CTX treatment groups, 10 μL of L1-stage nematodes, and 5 μL of OP50 were added in sequence into the 96-well plate, and the nematodes were cultured in a biological incubator at 20° C. for 72 h, where each concentration was set with 10 groups in parallel.
The CTX was set up in three exposure groups from low to high, with concentrations being 500 μg/mL, 1 mg/mL, and 2 mg/mL. At the same time, a blank control was set up.
The nematodes treated with different concentrations of drugs were transferred to NGM, and only one nematode was placed on each medium. The one nematode was picked to a new medium every day with a worm picker. After nematodes produced by this one nematode on the old medium grew to adults, the number of nematodes on the NGM plates with different concentrations of CTX was counted until this one nematode no longer lay eggs. A sum of the number of nematodes exchanged every day was the number of eggs laid and hatched in a whole reproductive cycle of the nematode, and the reproductive capacity of the nematode was determined based on this.
L1-stage C. elegans was obtained according to the protocol in Example 1, and was treated with the CTX at a concentration of 1 mg/mL according to Example 1. Effect of treatment time on the reproductive capacity of the C. elegans was investigated.
Nematodes in L1 to L4 stages were used to construct models and the rest of the steps were conducted according to the method in Example 1.
At 20° C. a blank control group and a CTX treatment group were given pure OP50 bacterial solution and 1 mg/mL CTX/OP50 bacterial solution, respectively. Food were supplemented every 24 h, and whether the nematodes survived normally was observed. After treated in S broth for 72 h, the nematodes in the blank group and the CTX treatment group were transferred to NGM with food OP50, and one nematode was placed on each medium. The one nematode was picked to a new medium every day with a worm picker After nematodes produced by this one nematode on the old medium grew to adults, the number of nematodes on NGM plates of the blank group and the CTX treatment group was counted until this one nematode no longer lay eggs.

O=P1(N(CCCl)CCCl)NCCCO1 (centres unmarked) [CTX, cyclophosphamide]
reproductive capacity of C. elegans as a function of CTX concentration (500 μg/mL to 2 mg/mL, L1-stage, S broth, 72 h): decreased with the increase of concentration | total number of reproduced C. elegans compared with the control (CTX 1 mg/mL, 48 h to 96 h treatment): significantly reduced | reduction of reproductive capacity (total number of nematodes reproduced) compared with blank control group (CTX 1 mg/mL, L1-stage nematodes, S broth, 20° C., 72 h): 50% | total reproduced C. elegans (CTX 1 mg/mL, treated for 72 h): reduced to the minimum | fecundity of nematodes (drug treatment at different larval stages L1 to L4): significantly reduce the fecundity
